Results taken from PubChem BioAssay (NCI).
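Where inhibition never reached the appropriate level, the endpoint shown equals the highest concentration tested. Otherwise, values were interpolated linearly from a five-concentration, 48-hour dose response in 96-well plates. At the TGI there is no net growth.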

What was measured:
Assay in all cases: NCI tumour cell line growth inhibition, 48 h
EKVX NSCLC = system: EKVX NSCLC
HCT-15 colon = system: HCT-15 colon
IGROV1 ovarian = system: IGROV1 ovarian
KM12 colon = system: KM12 colon
MCF7 breast = system: MCF7 breast
NCI-H522 lung = system: NCI-H522 lung
NCI/ADR-RES ovarian = system: NCI/ADR-RES ovarian
OVCAR-3 ovarian = system: OVCAR-3 ovarian
RPMI-8226 leukemia = system: RPMI-8226 leukemia
RXF 393 renal = system: RXF 393 renal
SF-268 CNS = system: SF-268 CNS
SF-295 CNS = system: SF-295 CNS
SK-MEL-5 melanoma = system: SK-MEL-5 melanoma
SK-OV-3 ovarian = system: SK-OV-3 ovarian
SNB-75 CNS = system: SNB-75 CNS
U251 CNS = system: U251 CNS
UACC-62 melanoma = system: UACC-62 melanoma
XF 498 CNS = system: XF 498 CNS
M14 melanoma = system: M14 melanoma
DU-145 prostate = system: DU-145 prostate

| SMILES | TGI (EKVX NSCLC) [µM] | TGI (HCT-15 colon) [µM] | TGI (IGROV1 ovarian) [µM] | TGI (KM12 colon) [µM] | TGI (MCF7 breast) [µM] | TGI (NCI-H522 lung) [µM] | TGI (NCI/ADR-RES ovarian) [µM] | TGI (OVCAR-3 ovarian) [µM] | TGI (RPMI-8226 leukemia) [µM] | TGI (RXF 393 renal) [µM] | TGI (SF-268 CNS) [µM] | TGI (SF-295 CNS) [µM] | TGI (SK-MEL-5 melanoma) [µM] | TGI (SK-OV-3 ovarian) [µM] | TGI (SNB-75 CNS) [µM] | TGI (U251 CNS) [µM] | TGI (UACC-62 melanoma) [µM] | TGI (XF 498 CNS) [µM] | TGI (M14 melanoma) [µM] | TGI (DU-145 prostate) [µM] |
| --- | --- | --- | --- | --- | --- | --- | --- | --- | --- | --- | --- | --- | --- | --- | --- | --- | --- | --- | --- | --- |
| CC(C)Cc1ccc(C(C)C(=O)N2CCN(/C=C/c3ccccc3)CC2)cc1 (configuration not stated) | 35 | 27.5 | 28.7 | 31.7 | 33.7 | 25 | 28.2 | 25.9 | 25.6 | 30.8 | 32 | 32.2 | 26 | 30.3 | 29.1 | 25.5 | 26.3 | 27.3 |  |  |
| O=c1cc[nH]c(=O)[nH]1 | 488 | > 1000 | > 1000 | 846 | > 1000 | 923 | > 562 | > 1000 | > 1000 | > 889 | > 1000 | > 1000 | 342 | > 1000 | > 953 | > 1000 | > 1000 | 7.72 |  |  |
| O=C1c2cccc3c2C(=O)c2c(cccc21)OCCOCCOCCOCCO3 | > 100 | > 100 | > 100 |  |  | > 100 |  | > 100 | > 100 | > 100 | > 100 | > 100 | > 100 | > 100 | > 100 | > 100 | > 100 |  | > 100 |  |
| NC(CCCCCP(=O)(c1ccccc1)C1C=CC=CC1)C(=O)O (configuration not stated) | > 100 | > 100 | > 100 | > 100 | > 100 | > 100 | > 100 | > 100 | > 100 | > 100 | > 100 | > 100 | > 100 | > 100 | > 100 | > 100 | > 100 |  | > 100 | > 100 |
| CCN(CC)CCNc1ccc2nnn3c4ccc(OCCN(CC)CC)cc4c(=O)c1c23 | > 100 | > 100 |  | 84.5 | > 100 | > 100 | > 100 |  | > 100 | > 100 | > 100 | > 100 |  | > 100 |  | > 100 | > 100 |  | > 100 | > 100 |
| O=P(O)(O)CCP(=O)(O)O | > 100 | > 100 | > 100 | > 100 | > 100 | > 100 | > 100 | > 100 | > 100 | > 100 | > 100 | > 100 | > 100 | > 100 |  | > 100 | > 100 |  | > 100 | > 100 |
| COc1ccc(/C=C2\CCNC2=O)cc1 | > 80.9 | > 100 | > 100 | > 100 | > 100 | > 100 | > 100 | > 100 | > 100 |  | > 100 | > 100 | > 100 | > 100 | > 79.5 | > 100 | > 100 | > 100 |  |  |
| C=CCc1c(O)c2c(c3oc(=O)cc(C)c13)CC(C)O2 (configuration not stated) | > 100 | > 100 | > 100 |  |  | > 100 |  | > 100 | > 100 | > 100 | > 100 | > 100 | > 100 | > 100 | > 100 | > 100 | > 100 |  | > 100 |  |
| CCCC(=O)OCC1OC(n2ccc(N)nc2=O)C(OC(=O)CCC)C1OC(=O)CCC (configuration not stated) | 16.8 | > 100 | > 100 | > 100 | > 100 | > 100 | > 100 | > 100 | > 100 | > 100 | > 100 | > 100 | > 100 | > 100 | > 100 | > 100 | > 100 |  |  |  |
| CCOc1ncn(-c2ccc(NC(=S)Nc3ncccn3)cc2)n1 | > 100 | > 100 | > 100 | > 100 | > 100 | 38.6 |  | > 100 | > 100 |  | > 100 | > 100 | 44.9 | > 100 | > 100 | > 100 | 91 |  | 91.3 | > 100 |
| Cc1c(O)ccc2c(O)c(NC(=O)c3ccc4c(c3)CCC(C)(C)O4)c(=O)oc12 | > 100 | > 100 | > 100 | > 100 | > 100 | > 100 | > 100 | > 100 | > 100 | > 100 | > 100 | > 100 | > 100 | > 100 | > 100 | > 100 | > 100 |  |  | > 100 |
